Read-outs that look alike come from different tables or passages of the source.
Tests used:
[1] = system: HIV-1; settings: cited from earlier work
[2] = system: HTLV-1; assay: Alu-qPCR of integrated provirus in HTLV-1 infected Jurkat cells; format: cell-based; settings: normalized to GAPDH
Experimental: The HTLV-1 cell-to-cell infection was performed as previously described; Jurkat T cells were counted and diluted in complete RPMI to a final concentration of 0.25 × 10^6 cells/ml and pre-treated with INSTI drugs (final concentration ranging from 0.2 pM to 2 μM) or DMSO as a control for 24 h. MT-2 cells were resuspended in RPMI at a concentration of 2 × 10^6 cells/ml and subjected to a nonlethal γ-radiation dose of 400 Gy. Cells were resuspended at a concentration of 2 × 10^6 cells/ml in serum-free RPMI supplemented with the corresponding INSTI drug. Co-culture of 0.5 × 10^6 for each cell line was carried out for 16 h, after which cells were washed in PBS and resuspended in 1 ml of depletion buffer (PBS, 0.1% FBS and 2 mM EGTA). MT-2 cells were depleted from the culture by means of anti-CD25 magnetic beads (DynabeadsTM CD25, Thermo Fisher). Depletion efficiency was confirmed via flow cytometry as described previously. Jurkat cells were cultured for 2 weeks in complete RPMI supplemented with the drugs and genomic DNA was extracted (DNeasy kit, Qiagen) and stored at −20 °C for subsequent analysis. All the experiments were done in triplicate.
The PVL was measured as previously described[9],[53],[54]. Jurkat genomic DNA was quantified and diluted to a concentration of 5 ng/μL. Real-time qPCR analysis were conducted on 20 ng of gDNA to measure the level of HTLV-1 tax and gapdh genes (Supplementary Table 5). For the standard curve, the gDNA from an HTLV-1 naturally infected T-cell clone (clone 11.50, courtesy of professor Charles Bangham), which has one copy of tax and two of gapdh, was used. The integrated provirus copy number was calculated as follows: (tax copy numbers)/(2×gapdh copy number)[53], and normalised to the DMSO-treated control which was set to 100%. The PVL data were fitted to a dose–response curve in Prism 7 and the EC50 was calculated. Alu-PCR was performed as previously described in ref. [55]. In brief, the first PCR reaction was done with Phusion polymerase starting from 80 ng of gDNA using the ALU-specific primers (Alu-F/Gag-R). The nested PCR was run diluting the amplificated product 1:50. The reaction was done as a qPCR using Gag-specific primers (Gag-R/Gag-F) and the Luna SYBR dye reaction mix (New England Biolabs). The integrated provirus copy numbers were normalised to GAPDH and Jurkat cells treated with DMSO and infected with HTLV-1 were set to 100%. Experiments were done in triplicate. […]
Supplementary Figure 6 | Integrated provirus was quantified by Alu-qPCR.
Values were normalized to GAPDH. Uninfected represents uninfected Jurkat cells, acting as negative control. Condition without any drug present (DMSO) was set as 100%. Mean values and standard deviations are shown for n = three biologically independent experiments. P-values were calculated with respect to the DMSO control using the unpaired t-test with Welch’s correction in Prism 9. P-values are two-sided.

[3] = previously reported, read-out: EC50, infection by wild-type HIV-1

Row | SMILES | EC50 ([1]; HIV-1 infection model, supplementary ref 7, read-out: HIV-1 EC50 ± stdev) [nM] | Integrated provirus by Alu-qPCR (DMSO = 100%) ([2]; Replicate 1) [%] | Integrated provirus by Alu-qPCR (DMSO = 100%) ([2]; Replicate 2) [%] | Integrated provirus by Alu-qPCR (DMSO = 100%) ([2]; Replicate 3) [%] | EC50 ([1]; HIV-1 infection model, supplementary ref 1, read-out: HIV-1 EC50 ± stdev) [nM] | EC50 ([1]; previously reported, read-out: EC50, inhibitory potency for HIV-1) [nM] | EC50 [1, 3] [nM]
1 | CC(C)n1c(C(=O)N(C)C)c2c(c(O)c1=O)C(=O)N(Cc1ccc(F)c(Cl)c1)CC2 [XZ236, 6-(3-chloro-4-fluorobenzyl)-4-hydroxy-2-isopropyl-N,N-dimethyl-3,5-dioxo-2,3,5,6,7,8-hexahydro-2,6-naphthyridine-1-carboxamide, reference compound] | 17 ± 4 | 4.2364 | 4.296 | 2.243 | – | – | –
2 | Nc1c(C(=O)NCc2ccc(F)cc2F)c(=O)n(O)c2ncc(CCCO)cc12 [XZ423, 4-amino-N-(2,4-difluorobenzyl)-1-hydroxy-6-(3-hydroxypropyl)-2-oxo-1,2-dihydro-1,8-naphthyridine-3-carboxamide] | – | 2.519 | 0.166 | 0.06882 | 3.1 ± 2 | – | –
3 | Nc1c(C(=O)NCc2ccc(F)cc2F)c(=O)n(O)c2ncc(CCS(=O)(=O)c3ccccc3)cc12 [XZ446, 4-amino-N-(2,4-difluorobenzyl)-1-hydroxy-2-oxo-6-(2-(phenylsulfonyl)ethyl)-1,2-dihydro-1,8-naphthyridine-3-carboxamide] | – | 13.9354 | 1.128 | 3.891 | – | 2 ± 0.1 | –
4 | Nc1c(C(=O)NCc2ccc(F)cc2F)c(=O)n(O)c2ncc(CCC(=O)NCCO)cc12 [XZ448, 4-amino-N-(2,4-difluorobenzyl)-1-hydroxy-6-(3-((2-hydroxyethyl)amino)-3-oxopropyl)-2-oxo-1,2-dihydro-1,8-naphthyridine-3-carboxamide] | – | 25.215 | 64.5778 | 27.0471 | – | – | 263 ± 52
5 | CN(C)C(=O)CCc1cnc2c(c1)c(N)c(C(=O)NCc1ccc(F)cc1F)c(=O)n2O [XZ450, 4-amino-N-(2,4-difluorobenzyl)-6-(3-(dimethylamino)-3-oxopropyl)-1-hydroxy-2-oxo-1,2-dihydro-1,8-naphthyridine-3-carboxamide] | – | 0.2536 | 0.5264 | 0.2229 | – | – | 5 ± 1.3
